Data taken from article PMC3062192 (Bioorganic & medicinal chemistry letters, 2011).

Experiments:
[1] = system: phosphorylated tau at Serine 235 (Ptau235) in primary neurons; assay: inhibition of tau phosphorylation; assay type: cell-based; details: rat primary neurons, 4 h at 37 °C, Ptau235 immunoblot
Cdk5/p25 = Cdk5/p25 (Homo sapiens, UniProt Q00535); assay: Cdk5/p25 radiometric kinase inhibition assay; assay type: biochemical
Sequence of Cdk5/p25 (Q00535 whole entry): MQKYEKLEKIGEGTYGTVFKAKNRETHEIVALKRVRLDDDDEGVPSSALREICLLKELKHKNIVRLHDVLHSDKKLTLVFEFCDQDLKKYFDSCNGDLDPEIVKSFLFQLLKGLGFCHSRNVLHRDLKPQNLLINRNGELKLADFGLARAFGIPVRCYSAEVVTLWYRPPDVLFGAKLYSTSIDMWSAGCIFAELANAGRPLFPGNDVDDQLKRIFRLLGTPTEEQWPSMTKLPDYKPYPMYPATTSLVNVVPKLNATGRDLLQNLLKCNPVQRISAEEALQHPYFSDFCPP
Sequence of Cdk5/p25 (Q15078 99-307 partner limits assumed): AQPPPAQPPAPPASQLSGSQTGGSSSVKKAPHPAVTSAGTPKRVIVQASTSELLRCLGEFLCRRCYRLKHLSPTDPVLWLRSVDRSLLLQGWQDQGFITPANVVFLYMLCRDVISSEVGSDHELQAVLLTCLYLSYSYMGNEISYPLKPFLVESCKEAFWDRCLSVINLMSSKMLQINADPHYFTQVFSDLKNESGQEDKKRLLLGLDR

Row | Compound | inhibition of tau phosphorylation (in words) [1] | binding ΔΔG (Cdk5/p25; calculated from the listed activities for the pair 26 and 28) [kcal/mol] | Cdk5/p25 inhibitory activity (in words) (Cdk5/p25; radiometric assay)
1 | Nc1nc(Nc2cccnc2)sc1C(=O)c1ccccc1F [Compound 26] | dose-dependent inhibition of tau phosphorylation | -2.6 | –
2 | CNc1nc(Nc2cccnc2)sc1C(=O)c1ccccc1F [Compound 43] | – | – | abolished inhibitory activity
